Data as given in patent EP3132692A1, “Compositions comprising small molecular inhibitors suitable to inhibit and stimulate signaling pathways in a manner leading to prevention of muscle atrophy” (priority 2015, dated 2017).

Columns and labels:
[1] = molecular target: human DNA topoisomerase II (topo II); conditions: cited from earlier work
C. Elegans = conditions: cited from earlier work
myoblast C2C12 cells = conditions: 100µM; low mitogen medium; cited from earlier work
[2] = via orange juice alongside 150 mL yogurt; cited from earlier work
[3] = tested on: mice subjected to freeze injury (tibialis); conditions: injections at 50mg/kg for six days; relative to control; cited from earlier work
UGT enzymes = conditions: after absorption; cited from earlier work
TGFβ-II receptor = TGFβ-II receptor (Homo sapiens, UniProt P37173); conditions: 100µM; cited from earlier work
PDE4 isomer = conditions: cited from earlier work
PPARγ = molecular target: T1, PPARγ (Homo sapiens, UniProt P37231); conditions: cited from earlier work
T1 sequence (P37231 1-505): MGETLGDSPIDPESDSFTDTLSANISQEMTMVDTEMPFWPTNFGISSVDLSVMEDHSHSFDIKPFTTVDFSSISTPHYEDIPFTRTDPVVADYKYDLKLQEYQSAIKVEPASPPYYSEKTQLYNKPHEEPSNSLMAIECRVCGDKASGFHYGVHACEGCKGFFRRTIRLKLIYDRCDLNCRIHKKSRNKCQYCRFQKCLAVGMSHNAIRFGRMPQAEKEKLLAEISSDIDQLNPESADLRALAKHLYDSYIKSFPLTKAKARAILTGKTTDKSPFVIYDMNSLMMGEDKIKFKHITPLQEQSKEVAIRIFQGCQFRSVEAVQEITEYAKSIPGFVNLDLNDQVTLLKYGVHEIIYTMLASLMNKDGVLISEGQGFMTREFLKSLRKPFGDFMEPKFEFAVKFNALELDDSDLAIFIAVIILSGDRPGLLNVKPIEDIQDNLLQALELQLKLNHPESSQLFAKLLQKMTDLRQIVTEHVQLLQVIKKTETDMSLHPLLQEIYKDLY

PPARα = molecular target: T2, PPARα (Homo sapiens, UniProt Q07869); conditions: cited from earlier work
T2 sequence (Q07869 1-468): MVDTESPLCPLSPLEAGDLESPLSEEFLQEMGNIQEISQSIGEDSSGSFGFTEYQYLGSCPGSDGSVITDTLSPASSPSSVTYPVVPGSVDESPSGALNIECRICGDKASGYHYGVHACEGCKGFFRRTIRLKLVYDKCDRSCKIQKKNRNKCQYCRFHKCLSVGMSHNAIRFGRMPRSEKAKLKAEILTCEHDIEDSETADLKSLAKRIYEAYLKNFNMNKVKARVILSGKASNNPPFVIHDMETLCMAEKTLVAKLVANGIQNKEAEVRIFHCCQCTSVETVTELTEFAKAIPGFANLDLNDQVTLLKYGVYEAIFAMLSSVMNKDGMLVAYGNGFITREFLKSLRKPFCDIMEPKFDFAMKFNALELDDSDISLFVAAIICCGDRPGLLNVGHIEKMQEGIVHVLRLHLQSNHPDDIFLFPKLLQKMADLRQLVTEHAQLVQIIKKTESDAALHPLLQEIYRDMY

aged men = conditions: treatment for 7 days; cited from earlier work
resistance trained men [4] = assay: Muscle thickness by B-mode ultrasound imaging, efficacy study; format: in vivo
Protocol: (§1) In the efficacy study, 18 resistance trained men with at least 5 years of experience in weight lifting voluntarily participated. Participants were divided in 3 equal groups; receiving placebo (hypromellose, 2 times a day), (-)-epicatechin ((EPI), 2x 150 mg a day) and (-)-epicatechin combined with hesperetin and myricetin ((E+H+M), 2x 150+100+50 mg a day). Maximally trained individuals were chosen as further muscle gains in such groups are usually minimal, even with dietary interventions. This is primarily explained due to a fact that such trained individuals reached so called "natural genetic plateau" where muscle tissue works within physiological optimum defined by the genetic blueprints, so even radical interventions (except anabolic steroids) and exercise regime cannot bring significant results. This was confirmed by participants as they had no means to achieve particularly better results over last few years of exercise. All subjects were asked to maintain the same caloric intake during 12 week study 5 days a week exercise. During 2 months study participants were taking 30 g of post exercise amino acid blend (whey, soy and casein protein) with following profile per 100 g: • Alanine 7.1g, arginine 9.2 g, aspartic acid 6.2 g, glutamic acid 21.5 g, glycine 12.2 g, histidine 1.1 g, isoleucine 6.9 g, leucine 11.1 g, methionine 0.3 g, phenylalanine 2.7 g, proline 11.2 g, serine 2.7 g, threonine 1.5 g, tyrosine 0.5 g and valine 5.8 g.
(§2) Body composition was examined at the beginning and the end of study using dual energy x-ray absorptiometry - DEXA scans (DiscoveryTM by Hologic). Total body estimates of fat and non-bone lean tissue were determined according to company supplied algorithms. Muscle thickness for Vastus lateralis and Triceps brachii lateralis was examined at the beginning and the end of study by B-mode ultrasound imaging (Toshiba PowerVision 8000) as the distance between the subcutaneous adipose tissue and inter-muscular belly interface. Total Cretine Kinase as a marker of muscle damage was performed by VITROS® 4600 (Ortho Clinical Diagnostics) at the beginning and the end of study.

[5] = Body composition by dual energy x-ray absorptiometry (DEXA), efficacy study; format: in vivo, men
Protocol: as §1, §2

resistance trained men [6] = assay: Strength measures: 1-repetition maximum (1-RM) bench press and squat, efficacy study; format: in vivo
resistance trained men [7] = assay: Total creatine kinase as marker of muscle damage, efficacy study; format: in vivo
Protocol: as §1, with “During 2 months study participants were taking 30 g of post exercise amino acid blend (whey, soy and casein protein) with following profile per 100 g: • Alanine 7.1g, arginine 9.2 g, aspartic acid 6.2 g, glutamic acid 21.5 g, glycine 12.2 g, histidine 1.1 g, isoleucine 6.9 g, leucine 11.1 g, methionine 0.3 g, phenylalanine 2.7 g, proline 11.2 g, serine 2.7 g, threonine 1.5 g, tyrosine 0.5 g and valine 5.8 g.” left out
Body composition was examined at the beginning and the end of study using dual energy x-ray absorptiometry - DEXA scans (DiscoveryTM by Hologic). Total body estimates of fat and non-bone lean tissue were determined according to company supplied algorithms. […]

[8] = BEGGINING of study, resistance trained men
[9] = END of 12 week study, EPI 2x 150 mg a day, E+H+M 2x 150+100+50 mg a day

TGFβ-II receptor, sequence (P37173 23-567): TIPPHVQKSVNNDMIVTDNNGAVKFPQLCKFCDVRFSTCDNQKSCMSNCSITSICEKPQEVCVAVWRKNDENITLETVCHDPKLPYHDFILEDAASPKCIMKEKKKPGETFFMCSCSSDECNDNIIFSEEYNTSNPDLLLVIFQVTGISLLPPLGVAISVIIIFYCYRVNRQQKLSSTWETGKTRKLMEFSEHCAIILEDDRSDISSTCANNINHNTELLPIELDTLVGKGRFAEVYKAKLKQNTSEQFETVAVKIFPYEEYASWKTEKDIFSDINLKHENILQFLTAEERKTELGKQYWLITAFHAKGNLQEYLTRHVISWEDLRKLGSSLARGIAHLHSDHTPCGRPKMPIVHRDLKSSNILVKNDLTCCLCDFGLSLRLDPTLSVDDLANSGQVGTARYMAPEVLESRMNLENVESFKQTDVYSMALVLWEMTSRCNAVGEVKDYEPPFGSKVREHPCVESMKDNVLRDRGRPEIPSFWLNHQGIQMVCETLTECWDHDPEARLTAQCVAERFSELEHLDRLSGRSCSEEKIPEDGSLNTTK

O=c1c(O)c(-c2cc(O)c(O)c(O)c2)oc2cc(O)cc(O)c12 [myricetin]
IC50 [1]: 27.5 µM
prolongation of average lifespan (C. Elegans; C. Elegans): 18%
prolongation of maximal lifespan (C. Elegans; C. Elegans): 21.7%
increase of average lifespan (C. Elegans; mev-1(kn1) mutants): 16%

COc1ccc(C2CC(=O)c3c(O)cc(OC4OC(COC5OC(C)C(O)C(O)C5O)C(O)C(O)C4O)cc3O2)cc1O (stereo not shown) [hesperidin, hesperetin-7-O-rutinoside]
myocyte differentiation (myoblast C2C12 cells): able to promote myocyte differentiation
reduction of Cmax of the main metabolite (hesperitin-7-O-glucuronide) [2]: 29%
reduction of overall exposure (AUC) of the main metabolite [2]: 27%
muscle regenerative capabilities [3]: significantly enhanced
found as hesperetin monoglucuronide (UGT enzymes): up to 87%
found as sulphoglucuronides (UGT enzymes): 13%

COc1ccc(C2CC(=O)c3c(O)cc(O)cc3O2)cc1O (stereo not shown) [hesperetin, 5,7,3'-trihydroxy-4'-methoxyflavanone]
ability of a ligand to associate with the TGFβ-II receptor (TGFβ-II receptor): approximately halve
IC50 (PDE4 isomer): 28.2 ± 1.1 µM
concentration range of concentration dependent stimulation of PPARγ activity (PPARγ): 20 to 160 µM
concentration range of concentration dependent stimulation of PPARα activity (PPARα): 20 to 160 µM

Oc1cc(O)c2c(c1)O[C@H](c1ccc(O)c(O)c1)[C@H](O)C2 [EPI, (-)-epicatechin]
hand grip strength (aged men): increases
ratio of plasma follistatin/myostatin (aged men): increases
Triceps Brachii Lateralis thickness (resistance trained men [4]; [8]): 30.8±4.4 mm
Vastus Lateralis thickness (resistance trained men [4]; [8]): 23.8±3.9 mm
Triceps Brachii Lateralis thickness (resistance trained men [4]; [9]): 33.8±2.2 mm
Vastus Lateralis thickness (resistance trained men [4]; [9]): 24.6±2.9 mm
Body fat [5, 8]: 11.2 ± 5.3 kg
Body mass [5, 8]: 93.2 ± 14.6 kg
Lean body mass [5, 8]: 76.4 ± 5.8 kg
Body fat [5, 9]: 9.1 ± 4.2 kg
Body mass [5, 9]: 93.8 ± 10.5 kg
Lean body mass [5, 9]: 77.2 ± 5.8 kg
1- RM BENCH PRESS (resistance trained men [6]; [8]): 148±21
1-RM SQUAT (resistance trained men [6]; [8]): 153 ± 24 kg
1-RM SQUAT (resistance trained men [6]; [9]): 170 ± 22 kg
Total Creatine Kinase (CK reff range: 38-120 ng/ml) (resistance trained men [7]; [8]): 86 ± 24 ng/mL
Total Creatine Kinase (CK reff range: 38-120 ng/ml) (resistance trained men [7]; [9]): 73 ± 16 ng/mL
